The source of these data is US8791102B2, “Acetanilide sphingosine-1-phosphate receptor antagonists” (Exelixis, Inc., priority 2008, dated 2014).

Molecules are shown by their SMILES.

The target of this experiment is T1, human S1P1 receptors (Homo sapiens, UniProt P21453).
T1 construct: host or cells: HEK293
T1 sequence (P21453 whole entry): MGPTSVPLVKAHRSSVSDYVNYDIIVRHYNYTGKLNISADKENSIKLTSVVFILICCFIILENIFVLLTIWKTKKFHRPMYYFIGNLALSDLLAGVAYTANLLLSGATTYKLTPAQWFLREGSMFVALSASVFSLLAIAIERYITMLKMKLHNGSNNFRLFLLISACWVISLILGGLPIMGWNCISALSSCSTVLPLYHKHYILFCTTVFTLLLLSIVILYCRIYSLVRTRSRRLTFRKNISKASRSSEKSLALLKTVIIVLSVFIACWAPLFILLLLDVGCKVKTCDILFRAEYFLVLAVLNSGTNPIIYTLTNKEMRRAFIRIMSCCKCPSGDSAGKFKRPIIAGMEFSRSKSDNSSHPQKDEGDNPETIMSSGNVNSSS
In words: S1P1R antagonist assay (fluorescent membrane potential dye, cAMP readout). The format is cell-based. To be noted: HEK293 cells expressing human S1P1 receptors and CNG channel; 500 nM NECA; S1P1R agonist 10 nM; 90 minutes; read-out: EC50 or IC50 value.
In the case of `O=C(Cc1ccccc1F)NC(COCc1ccccc1)C(=O)Nc1ccc(Oc2ccccc2)cc1` (stereo not shown) [Compound 183, 3-(benzyloxy)-2-(2-(2-fluorophenyl)acetamido)-N-(4-phenoxyphenyl)propanamide], the IC50 lay within 300 to 1000 nM. As to `O=C(NC(COCc1ccccc1)C(=O)Nc1ccc(Oc2ccccc2)cc1)c1ccc(OC(F)F)cc1` (stereo not shown) [Compound 399, 4-[(difluoromethyl)oxy]-N-(2-oxo-1-{[(phenylmethyl)oxy]methyl}-2-{[4-(phenyloxy)phenyl]amino}ethyl)benzamide], the IC50 is over 1000 nM. Then `O=C(Nc1ccc(Oc2ccc(F)cc2)cc1)[C@@H]1C[C@@H](Cc2cccs2)CN1C(=O)Cn1nccn1` [Compound 64, (2S,4S)-1-(2-(2H-1,2,3-triazol-2-yl)acetyl)-N-(4-(4-fluorophenoxy)phenyl)-4-(thien-2-ylmethyl)pyrrolidine-2-carboxamide], with at most 300 nM; and `O=C(CNCCc1c[nH]cn1)N[C@@H](COCc1ccccc1)C(=O)Nc1ccc(Oc2ccc(F)cc2)cc1` [Compound 216, (S)-2-(2-(2-(1H-imidazol-4-yl)ethylamino)acetamido)-3-(benzyloxy)-N-(4-(4-fluorophenoxy)phenyl)propanamide], with 300 to 1000 nM; and `O=C(Nc1ccc(Oc2ccc(F)cc2)cc1)[C@@H]1C[C@@H](Cc2ccccc2)CN1C(=O)Cn1nnc2ccccc21` [Compound 176, (2S,4R)-1-(2-(1H-benzo[d][1,2,3]triazol-1-yl)acetyl)-4-benzyl-N-(4-(4-fluorophenoxy)phenyl)pyrrolidine-2-carboxamide], with at most 300 nM. Then `CC(=O)CCC(=O)N1C[C@H](Cc2ccccc2)C[C@H]1C(=O)Nc1ccc(Oc2ccc(F)cc2)cc1` [Compound 123, (2S,4R)-4-benzyl-N-(4-(4-fluorophenoxy)phenyl)-1-(4-oxopentanoyl)pyrrolidine-2-carboxamide], with at most 300 nM; and `O=C(Nc1ccc(Oc2ccc(F)cc2)cc1)[C@@H]1CN(Cc2ccccc2)CCN1C(=O)Cn1cncn1` [Compound 261, (S)-1-(2-(1H-1,2,4-triazol-1-yl)acetyl)-4-benzyl-N-(4-(4-fluorophenoxy)phenyl)piperazine-2-carboxamide], with 300 to 1000 nM; and `CC(=O)CCCC(=O)NC(COCc1ccccc1)C(=O)Nc1ccc(Oc2ccccc2)cc1` (stereo not shown) [Compound 310, 5-oxo-N-(2-oxo-1-{[(phenylmethyl)oxy]methyl}-2-{[4-(phenyloxy)phenyl]amino}ethyl)hexanamide], with over 1000 nM.

In the case of `O=C(CN1CCN(c2ccccn2)CC1)N[C@@H](COCc1ccccc1)C(=O)Nc1ccc(Oc2ccc(F)cc2)cc1` [Compound 126, (S)-3-(benzyloxy)-N-(4-(4-fluorophenoxy)phenyl)-2-(2-(4-(pyridin-2-yl)piperazin-1-yl)acetamido)propanamide], the IC50 was over 1000 nM. The figure for `O=C(Cc1cccs1)NC(COCc1ccccc1)C(=O)Nc1ccc(Oc2ccccc2)cc1` (stereo not shown) [Compound 293, N-(2-oxo-1-{[(phenylmethyl)oxy]methyl}-2-{[4-(phenyloxy)phenyl]amino}ethyl)thien-2-ylacetamide] is over 1000 nM; for `O=C(Cc1ccccc1Br)NC(COCc1ccccc1)C(=O)Nc1ccc(Oc2ccccc2)cc1` (stereo not shown) [Compound 301, N-(2-oxo-1-{[(phenylmethyl)oxy]methyl}-2-{[4-(phenyloxy)phenyl]amino}ethyl)-2-bromophenylacetamide] it is 300 to 1000 nM. The figure for `O=C(Nc1ccc(Oc2ccc(F)cc2)cc1)[C@@H]1C[C@@H](CNCc2ccccc2)CN1C(=O)Cn1cncn1` [Compound 262, (2S,4S)-1-(2-(1H-1,2,4-triazol-1-yl)acetyl)-4-((benzylamino)methyl)-N-(4-(4-fluorophenoxy)phenyl)pyrrolidine-2-carboxamide] is 300 to 1000 nM; for `O=C(Cc1ccccc1F)N[C@@H](COCc1ccccc1)C(=O)Nc1ccc(Oc2ccccc2)cc1` [Compound 196, (S)-2-(2-(2-fluorophenyl)acetamido)-3-benzyloxy-N-(4-phenoxyphenyl)propanamide] it is 300 to 1000 nM.

Usually IC50 stands for the concentration that gives 50% inhibition.
